Assay results taken from patent US20250376483A1, “PRODRUGS OF PAN-KRAS INHIBITORS” (Mirati Therapeutics, Inc., priority 2022, published 2025).

How the values were obtained:
[1] = Whole Blood Stability Assay (mouse whole blood); assay type: in vitro ADME; details: CD-1 mouse blood, EDTA-K2, final conc. 2 μM, 37° C., 0-120 min; for half-life at 2 μM: male, fresh whole blood, read-out: Mouse Whole Blood Stability t1/2
Procedure, shortened: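 Compound at 2 μM final was incubated at 37 °C in fresh EDTA-K2 blood from male CD-1 mice. Samples at 0, 10, 30, 60 and 120 min were protein-precipitated with acetonitrile and analysed by LC-MS/MS. % remaining was derived from analyte/internal-standard peak area ratios.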

[2] = Plasma Stability Assay (human plasma); assay type: in vitro ADME; details: both sexes; pooled human plasma, heparin, final conc. 2 μM, 37° C., 0-120 min; read-out: Human Plasma Stability t1/2
Procedure, shortened: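 Compound at 2 μM final in pooled heparinised plasma (3 male, 3 female), incubated at 37° C with sampling at 0, 10, 30, 60 and 120 min. Acetonitrile stop, LC-MS/MS; % remaining from analyte/internal-standard peak area ratio relative to T0.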

Mouse Whole Blood Stability t1/2 [1] [min] | Compound | half-life at 2 μM [1] [h] | half-life at 2 μM [2] [h]
 | CCc1c(F)ccc2cc(OC(=O)N3CCCC3)cc(N3CCc4c(nc(OC[C@@]56CCCN5C[C@H](F)C6)nc4N4CCC[C@]5(C4)NC(=O)NC5=O)C3)c12 [Example 43, 4-(4-((R)-2,4-dioxo-1,3,7-triazaspiro[4.5]decan-7-yl)-2-(((2R,7aS)-2-fluorotetrahydro-1H-pyrrolizin-7a(5H)-yl)methoxy)-5,8-dihydropyrido[3,4-d]pyrimidin-7(6H)-yl)-5-ethyl-6-fluoronaphthalen-2-yl pyrrolidine-1-carboxylate] | > 4.82 | > 4.82
1 | CCCCCC(=O)Oc1cc(N2CCc3c(nc(OC[C@@]45CCCN4C[C@H](F)C5)nc3N3CCC[C@]4(C3)NC(=O)NC4=O)C2)c2c(CC)c(F)ccc2c1 [Example 44, 4-(4-((R)-2,4-dioxo-1,3,7-triazaspiro[4.5]decan-7-yl)-2-(((2R,7aS)-2-fluorotetrahydro-1H-pyrrolizin-7a(5H)-yl)methoxy)-5,8-dihydropyrido[3,4-d]pyrimidin-7(6H)-yl)-5-ethyl-6-fluoronaphthalen-2-yl hexanoate] |  | 2.37
 | CCc1c(F)ccc2cc(OC(=O)N(CC)CC)cc(N3CCc4c(nc(OC[C@@]56CCCN5C[C@H](F)C6)nc4N4CCC[C@]5(C4)NC(=O)NC5=O)C3)c12 [Example 45, 4-(4-((R)-2,4-dioxo-1,3,7-triazaspiro[4.5]decan-7-yl)-2-(((2R,7aS)-2-fluorotetrahydro-1H-pyrrolizin-7a(5H)-yl)methoxy)-5,8-dihydropyrido[3,4-d]pyrimidin-7(6H)-yl)-5-ethyl-6-fluoronaphthalen-2-yl diethylcarbamate] | > 4.82 | > 4.82
 | CCc1c(F)ccc2cc(OC(=O)OC(C)(C)C)cc(N3CCc4c(nc(OC[C@@]56CCCN5C[C@H](F)C6)nc4N4CCC[C@]5(C4)NC(=O)NC5=O)C3)c12 [Example 46, tert-butyl (4-(4-((R)-2,4-dioxo-1,3,7-triazaspiro[4.5]decan-7-yl)-2-(((2R,7aS)-2-fluorotetrahydro-1H-pyrrolizin-7a(5H)-yl)methoxy)-5,8-dihydropyrido[3,4-d]pyrimidin-7(6H)-yl)-5-ethyl-6-fluoronaphthalen-2-yl) carbonate] | 0.217 | 1.93
 | CCc1c(F)ccc2cc(OC(=O)C3CCCCC3)cc(N3CCc4c(nc(OC[C@@]56CCCN5C[C@H](F)C6)nc4N4CCC[C@]5(C4)NC(=O)NC5=O)C3)c12 [Example 47, 4-(4-((R)-2,4-dioxo-1,3,7-triazaspiro[4.5]decan-7-yl)-2-(((2R,7aS)-2-fluorotetrahydro-1H-pyrrolizin-7a(5H)-yl)methoxy)-5,8-dihydropyrido[3,4-d]pyrimidin-7(6H)-yl)-5-ethyl-6-fluoronaphthalen-2-yl cyclohexanecarboxylate] | 0.0667 | 3.72
 | CCc1c(F)ccc2cc(OC(=O)N3CCCCC3)cc(N3CCc4c(nc(OC[C@@]56CCCN5C[C@H](F)C6)nc4N4CCC[C@]5(C4)NC(=O)NC5=O)C3)c12 [Example 48, 4-(4-((R)-2,4-dioxo-1,3,7-triazaspiro[4.5]decan-7-yl)-2-(((2R,7aS)-2-fluorotetrahydro-1H-pyrrolizin-7a(5H)-yl)methoxy)-5,8-dihydropyrido[3,4-d]pyrimidin-7(6H)-yl)-5-ethyl-6-fluoronaphthalen-2-yl piperidine-1-carboxylate] | 1.77 | > 4.82
 | CCCCCCCC(=O)Oc1cc(N2CCc3c(nc(OC[C@@]45CCCN4C[C@H](F)C5)nc3N3CCC[C@]4(C3)NC(=O)NC4=O)C2)c2c(CC)c(F)ccc2c1 [Example 50, 4-(4-((R)-2,4-dioxo-1,3,7-triazaspiro[4.5]decan-7-yl)-2-(((2R,7aS)-2-fluorotetrahydro-1H-pyrrolizin-7a(5H)-yl)methoxy)-5,8-dihydropyrido[3,4-d]pyrimidin-7(6H)-yl)-5-ethyl-6-fluoronaphthalen-2-yl octanoate] | 0.217 | 3.92
 | CCCCCCCCCC(=O)Oc1cc(N2CCc3c(nc(OC[C@@]45CCCN4C[C@H](F)C5)nc3N3CCC[C@]4(C3)NC(=O)NC4=O)C2)c2c(CC)c(F)ccc2c1 [Example 51, 4-(4-((R)-2,4-dioxo-1,3,7-triazaspiro[4.5]decan-7-yl)-2-(((2R,7aS)-2-fluorotetrahydro-1H-pyrrolizin-7a(5H)-yl)methoxy)-5,8-dihydropyrido[3,4-d]pyrimidin-7(6H)-yl)-5-ethyl-6-fluoronaphthalen-2-yl decanoate] | 0.0667 | 3.92
 | CCc1c(F)ccc2cc(OCOC(=O)N(C)C)cc(N3CCc4c(nc(OC[C@@]56CCCN5C[C@H](F)C6)nc4N4CCC[C@]5(C4)NC(=O)NC5=O)C3)c12 [Example 52, ((4-(4-((R)-2,4-dioxo-1,3,7-triazaspiro[4.5]decan-7-yl)-2-(((2R,7aS)-2-fluorotetrahydro-1H-pyrrolizin-7a(5H)-yl)methoxy)-5,8-dihydropyrido[3,4-d]pyrimidin-7(6H)-yl)-5-ethyl-6-fluoronaphthalen-2-yl)oxy)methyl dimethylcarbamate] | > 4.82 | > 4.82
 | CCc1c(F)ccc2cc(OC(=O)N3CCCCCC3)cc(N3CCc4c(nc(OC[C@@]56CCCN5C[C@H](F)C6)nc4N4CCC[C@]5(C4)NC(=O)NC5=O)C3)c12 [Example 53, 4-(4-((R)-2,4-dioxo-1,3,7-triazaspiro[4.5]decan-7-yl)-2-(((2R,7aS)-2-fluorotetrahydro-1H-pyrrolizin-7a(5H)-yl)methoxy)-5,8-dihydropyrido[3,4-d]pyrimidin-7(6H)-yl)-5-ethyl-6-fluoronaphthalen-2-yl azepane-1-carboxylate] | > 4.82 | > 4.82
 | CCc1c(F)ccc2cc(OC(=O)N3CCCCCCC3)cc(N3CCc4c(nc(OC[C@@]56CCCN5C[C@H](F)C6)nc4N4CCC[C@]5(C4)NC(=O)NC5=O)C3)c12 [Example 54, 4-(4-((R)-2,4-dioxo-1,3,7-triazaspiro[4.5]decan-7-yl)-2-(((2R,7aS)-2-fluorotetrahydro-1H-pyrrolizin-7a(5H)-yl)methoxy)-5,8-dihydropyrido[3,4-d]pyrimidin-7(6H)-yl)-5-ethyl-6-fluoronaphthalen-2-yl azocane-1-carboxylate] | > 4.82 | > 4.82
 | CCc1c(F)ccc2cc(OC(=O)N3CCCC[C@@H]3C)cc(N3CCc4c(nc(OC[C@@]56CCCN5C[C@H](F)C6)nc4N4CCC[C@]5(C4)NC(=O)NC5=O)C3)c12 [Example 55, 4-(4-((R)-2,4-dioxo-1,3,7-triazaspiro[4.5]decan-7-yl)-2-(((2R,7aS)-2-fluorotetrahydro-1H-pyrrolizin-7a(5H)-yl)methoxy)-5,8-dihydropyrido[3,4-d]pyrimidin-7(6H)-yl)-5-ethyl-6-fluoronaphthalen-2-yl(S)-2-methylpiperidine-1-carboxylate] | > 4.82 | > 4.82
 | CCc1c(F)ccc2cc(OC(=O)N3CCC(C)CC3)cc(N3CCc4c(nc(OC[C@@]56CCCN5C[C@H](F)C6)nc4N4CCC[C@]5(C4)NC(=O)NC5=O)C3)c12 [Example 56, 4-(4-((R)-2,4-dioxo-1,3,7-triazaspiro[4.5]decan-7-yl)-2-(((2R,7aS)-2-fluorotetrahydro-1H-pyrrolizin-7a(5H)-yl)methoxy)-5,8-dihydropyrido[3,4-d]pyrimidin-7(6H)-yl)-5-ethyl-6-fluoronaphthalen-2-yl 4-methylpiperidine-1-carboxylate] | > 4.82 | > 4.82
 | CCc1c(F)ccc2cc(OC(=O)N3CCCC[C@H]3C)cc(N3CCc4c(nc(OC[C@@]56CCCN5C[C@H](F)C6)nc4N4CCC[C@]5(C4)NC(=O)NC5=O)C3)c12 [Example 57, 4-(4-((R)-2,4-dioxo-1,3,7-triazaspiro[4.5]decan-7-yl)-2-(((2R,7aS)-2-fluorotetrahydro-1H-pyrrolizin-7a(5H)-yl)methoxy)-5,8-dihydropyrido[3,4-d]pyrimidin-7(6H)-yl)-5-ethyl-6-fluoronaphthalen-2-yl (R)-2-methylpiperidine-1-carboxylate] | > 4.82 | > 4.82
 | CCc1c(F)ccc2cc(OC(=O)N3CCC[C@@H](C)C3)cc(N3CCc4c(nc(OC[C@@]56CCCN5C[C@H](F)C6)nc4N4CCC[C@]5(C4)NC(=O)NC5=O)C3)c12 [Example 58, 4-(4-((R)-2,4-dioxo-1,3,7-triazaspiro[4.5]decan-7-yl)-2-(((2R,7aS)-2-fluorotetrahydro-1H-pyrrolizin-7a(5H)-yl)methoxy)-5,8-dihydropyrido[3,4-d]pyrimidin-7(6H)-yl)-5-ethyl-6-fluoronaphthalen-2-yl (R)-3-methylpiperidine-1-carboxylate] | > 4.82 | > 4.82
 | CCc1c(F)ccc2cc(OC(=O)N3CCC[C@H](C)C3)cc(N3CCc4c(nc(OC[C@@]56CCCN5C[C@H](F)C6)nc4N4CCC[C@]5(C4)NC(=O)NC5=O)C3)c12 [Example 59, 4-(4-((R)-2,4-dioxo-1,3,7-triazaspiro[4.5]decan-7-yl)-2-(((2R,7aS)-2-fluorotetrahydro-1H-pyrrolizin-7a(5H)-yl)methoxy)-5,8-dihydropyrido[3,4-d]pyrimidin-7(6H)-yl)-5-ethyl-6-fluoronaphthalen-2-yl (S)-3-methylpiperidine-1-carboxylate] | > 4.82 | > 4.82
